Consider 88 compounds from PubChem BioAssay AID1645864 (Buhrlage Lab, Dana-Farber Cancer Institute and Novartis …, 2021).

Each structure is given as a SMILES string. pIC50: −log10 of the molar value. Active and inactive are the calls of the source.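 The calls were made as follows: active = maximal inhibition of USP17 at or above 30% in the confirmation dose-response, a value not among the printed readouts; inactive = the rest.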

For this assay, the target named is Ubiquitin carboxyl-terminal hydrolase 17-like protein 5 (Homo sapiens) (UniProt A8MUK1). The experiment in a line: ubiquitin-specific protease 17 inhibitors, concentration series, biochemical, verification of primary actives (AID 1645864). The conditions noted are these: purified USP17, ubiquitin-rhodamine cleavage fluorescence, 3 h.
Sequence of Ubiquitin carboxyl-terminal hydrolase 17-like protein 5 (Homo sapiens) (A8MUK1 whole entry, looked up): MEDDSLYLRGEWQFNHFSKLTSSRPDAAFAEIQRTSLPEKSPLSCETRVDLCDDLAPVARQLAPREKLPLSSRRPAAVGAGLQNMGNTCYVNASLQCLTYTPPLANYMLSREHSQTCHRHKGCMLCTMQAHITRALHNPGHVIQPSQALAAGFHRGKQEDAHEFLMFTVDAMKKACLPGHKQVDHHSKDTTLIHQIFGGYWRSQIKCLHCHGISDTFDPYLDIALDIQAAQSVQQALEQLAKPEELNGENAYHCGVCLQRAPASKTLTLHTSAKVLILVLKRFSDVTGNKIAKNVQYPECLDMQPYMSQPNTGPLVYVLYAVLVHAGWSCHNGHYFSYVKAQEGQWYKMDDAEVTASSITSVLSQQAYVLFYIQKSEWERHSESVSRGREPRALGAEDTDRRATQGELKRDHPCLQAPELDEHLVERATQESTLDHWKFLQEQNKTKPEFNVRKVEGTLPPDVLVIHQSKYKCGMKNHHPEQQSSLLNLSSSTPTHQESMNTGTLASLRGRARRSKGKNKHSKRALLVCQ
For the compound `O=C(Cc1c[nH]c2ccccc12)Nc1nc2ccccc2s1`, the IC50 (as a rule, the concentration that gives 50% inhibition) was > 50 µM (inactive).

Regarding `O=C(NCc1ccc2c(c1)OCO2)c1nc(-c2ccccc2)n(-c2ccccc2)n1`, the IC50 is > 50 µM (inactive).

Regarding `CC(C)c1ccc(/C=C/C(=O)N2CCc3ccccc3C2)cc1`, the pIC50 – broadly, the negative decadic logarithm of the IC50, by convention in mol/L – is 4.68.

`CCc1nc(N2CCCC2=O)sc1C(=O)Nc1cccc(C(C)=O)c1`: the IC50 is > 50 µM (inactive).

`Cc1ccc(NC(=O)c2ccn(COc3ccc(F)cc3)n2)nc1`: the pIC50 is 4.49.

Consider `COc1ccc(C)cc1NC(=O)Cc1csc(NC(=O)c2ccc(=O)[nH]c2)n1`, for which the pIC50 is 4.39.

In the case of `CSc1cccc(NC(=O)CCc2ccc3nc(NC(C)=O)sc3c2)c1`, the IC50 was > 50 µM (inactive).

On to `Clc1ccccc1CSc1nnc(C2CCCCC2)n1Cc1ccccc1`, for which the pIC50 is 4.39.

`COc1ccc(-c2cc(C(F)F)n3ncc(C(=O)Nc4ccc5c(c4)OCCO5)c3n2)cc1`: the IC50 was > 50 µM (inactive).

With `COc1ccc(C2CC(=O)Nc3ccc4ccccc4c32)c(OC)c1OC` (stereo not drawn), the pIC50 is 4.39.

Turning to `Cc1sc(NC(=O)/C=C/c2ccco2)nc1-c1ccccc1`, the IC50 is > 50 µM (inactive).

As to `COc1cc(NC(=O)COC(=O)Cn2cnc3ccccc32)cc(OC)c1`, the IC50 was > 50 µM (inactive).

Take `O=C(COC(=O)c1ccc(NS(=O)(=O)c2ccc3c(c2)OCCO3)cc1)NCc1ccc(Cl)cc1`: the IC50 is > 50 µM (inactive).

As to `Cc1ccccc1C(=O)OCCN1C(=O)c2cccc3c(N4CCCCC4)ccc(c23)C1=O`, the IC50 was > 50 µM (inactive).

`CN1CC2CN(C(=O)c3ccc(F)cc3)CCN2Cc2ccccc21` (stereo not drawn): the IC50 was > 50 µM (inactive).

For `COc1ccc(C(=O)Nc2cc(-c3ccccn3)no2)cn1`, the IC50 was > 50 µM (inactive).

For `O=C(CCn1c(=O)c2sccc2n(CC(=O)OCc2ccccc2)c1=O)NCc1ccc2c(c1)OCO2`, the pIC50 is 4.85.

For `COc1ccc(C2/C(=C(\O)c3ccccc3)C(=O)C(=O)N2c2nc3ccc(F)cc3s2)cc1` (stereo not drawn), the pIC50 is 4.75.

As to `COc1ccc(-c2cc3nc([C@H](C)NC(=O)Cc4ccccc4C)nn3cn2)cc1`, the pIC50 is 5.62.

`O=C(c1cc(-c2ccncc2)n[nH]1)N1CCC(C(=O)N2CC=C(c3ccccc3)CC2)CC1`: the pIC50 was 4.55.

For the compound `CCOC(=O)c1c(C)oc2nc(CSc3ccccc3)[nH]c(=O)c12`, the IC50 is > 50 µM (inactive).

Consider `CC1=C[C@@H](C)CC[C@H]2O[C@@H](C3=C(O)C(=O)C(C)=C4O[C@](O)(C=C43)[C@@H](C)C[C@H](C)C1)[C@H](C)[C@@H](O)[C@H]2C`, for which the pIC50 was 4.79.

On to `COc1ccc(C2C(C(=O)C(C)(C)C)N3c4ccccc4C=CC3C23C(=O)c2ccccc2C3=O)c(OC)c1` (stereo not drawn), for which the IC50 was > 50 µM (inactive).

With `CCOC(=O)c1ccc(S(=O)(=O)N2CCC(C(=O)OC(C)C(=O)Nc3cccc([N+](=O)[O-])c3)CC2)cc1` (stereo not drawn), the negative logarithm of the IC50 (pIC50) is 5.13.

With `Cc1cc(C)c2nc3c(cc2c1)CN(Cc1ccco1)C(=O)O3`, the IC50 is > 50 µM (inactive).

For the compound `CC(C)CCn1c(=O)c2ccccc2n2c(CCC(=O)NC3CCCCCC3)nnc12`, the IC50 was > 50 µM (inactive).

For the compound `Cc1ccc2c(c1)N(C)C(=O)c1cc(NC(=O)c3ccc(F)cc3)ccc1O2`, the negative-log IC50 (pIC50) is 5.69.

For `O=C(Cn1c(=O)n(CCC(=O)N2CC=C(c3ccccc3)CC2)c(=O)c2ccccc21)NCc1ccco1`, the negative-log IC50 (pIC50) was 4.51.

For `O=C(Nc1nnc2n1CCCS2)c1cccc(Cl)c1`, the IC50 is > 50 µM (inactive).

As to `Cc1ccc(Cn2c(=O)n(CCC(=O)NCCc3ccccc3)c(=O)c3ccccc32)cc1`, the pIC50 is 4.93.

`CC1=C(c2ccc(F)cc2)S(=O)(=O)NC1=NCC(=O)Nc1cccc(F)c1`: the pIC50 was 4.47.

For `Cc1cc(C)cc(-n2ccnc(SCC(=O)Nc3cccc(Cl)c3)c2=O)c1`, the pIC50 is 4.55.

Consider `Cc1ccccc1-c1nnc(-c2ccc(C(=O)NCc3ccccc3F)cc2)o1`, for which the pIC50 was 5.24.

`CC(C)Cc1cc(-c2nnc3sc(-c4ccco4)nn23)n[nH]1`: the IC50 was > 50 µM (inactive).

Consider `Cc1nc2nc(SCc3nc4ccccc4n3C)[nH]c2cc1Br`, for which the pIC50 was 5.45.

`O=S(c1ccc2ccccc2c1)c1cnns1` (stereo not drawn): the IC50 is > 50 µM (inactive).

For `O=C1CC(c2cc3c(cc2Br)OCO3)c2cc3c(cc2N1)OCCO3` (stereo not drawn), the pIC50 is 4.71.

For `O=C(Nc1cccc(-c2nc3ccccc3[nH]2)c1)c1cc2ccccc2oc1=O`, the pIC50 is 6.37.

On to `O=C(Cn1c(=O)c2sccc2n(Cc2ccc([N+](=O)[O-])cc2)c1=O)NCCc1ccccc1`, for which the pIC50 is 4.57.

For the compound `COc1c2nc3ccccc3oc-2cc(=O)c1OC`, the pIC50 is 4.62.

As for `O=C(OCc1ccc(F)cc1)c1ccc2ccccc2n1`, the IC50 is > 50 µM (inactive).

`Cc1c(C)c2ccc(OCC(=O)NCc3ccncc3)c(C)c2oc1=O`: the pIC50 is 4.38.

Take `COc1cccc(CNC(=O)C2=Cc3cccc(OC)c3OC2)c1`: the IC50 was > 50 µM (inactive).

`Cc1ccccc1NC(=O)CNc1nc(Nc2ccccc2)nc(Nc2ccccc2)n1`: the pIC50 is 4.66.

As for `CCCCc1nc2sc3c(SCC(=O)Nc4cccc(C)c4)ncnc3c2c2c1CCC2`, the pIC50 is 4.86.

Consider `Cc1cc(NC(=O)COc2ccc3oc4ccccc4c3c2)no1`, for which the pIC50 was 4.50.

For `COCCCN1CCS(=O)(=O)c2c(Cl)c(F)nc(Oc3ccc(C#N)cc3)c21`, the IC50 was > 50 µM (inactive).

Consider `CC1=C(C)C(c2c(-c3ccc(C)cc3)[nH]c3ccccc23)N(C(C)(C)C)C1=O` (stereo not drawn), for which the pIC50 is 5.69.

As for `Cc1cc(C(=O)NC2(O)C(=O)c3ccccc3C2=O)n(C)n1`, the pIC50 is 5.13.

Consider `Cc1cc(C)cc(-n2cnc3cc(C(=O)NCCC4=CCCCC4)ccc32)c1`, for which the IC50 was > 50 µM (inactive).

As to `COc1ccc2ncc3c(-c4ccc(C)cc4)nn(-c4ccc(F)cc4)c3c2c1`, the pIC50 is 5.45.

Turning to `COc1ccc(OC)c(NC(=O)CSc2nc(C)nc3c2oc2ccccc23)c1`, the pIC50 is 5.59.

With `CC(=O)c1cccc(NC(=O)c2ccc3[nH]c4c(c3c2)CC(C)CC4)c1` (stereo not drawn), the IC50 was > 50 µM (inactive).

As to `COc1c(O)cc(CC(=O)O)c(C(C)=O)c1O`, the negative logarithm of the IC50 (pIC50) was 4.95.

Turning to `Cn1c2ccccc2c2ncn(Cc3ccc(F)cc3)c(=O)c21`, the pIC50 was 4.36.

With `COc1ccc(NC2c3ccccc3C(=O)N2c2ccccn2)cc1` (stereo not drawn), the IC50 was > 50 µM (inactive).

For the compound `COc1cc(N)c(Cl)cc1C(=O)OCC(=O)c1ccc2c(c1)OCCO2`, the IC50 is > 50 µM (inactive).

For `CC1CCc2sc(NC(=O)c3ccccc3Oc3ccccc3)c(C(N)=O)c2C1` (stereo not drawn), the pIC50 is 5.16.

On to `COc1ccc(C2SCC(=O)Nc3c2c(=O)[nH]n3C2CCCCC2)cc1` (stereo not drawn), for which the pIC50 was 4.54.

Take `Cc1ccc(N2CC(c3nc4ccccc4n3CCCCOc3ccccc3)CC2=O)cc1` (stereo not drawn): the IC50 was > 50 µM (inactive).

Turning to `COC1/C=C/OC2(C)Oc3c(C)c(O)c4c(c3C2=O)C(=O)C=C(NC(=O)/C(C)=C\C=C\C(C)C(O)C(C)C(O)C(C)C(OC(C)=O)C1C)C4=O` (stereo not drawn), the pIC50 is 4.73.

Regarding `CCCCC/C=C/C=C/C(=O)OC1C(O)CC(c2ccc3c(c2O)C(=O)c2c(O)cc4cc(C)cc(O)c4c2C3=O)OC1C` (stereo not drawn), the pIC50 was 6.40.

Turning to `COc1ccccc1OCC(=O)Nc1ccc2c(c1)CCC(=O)N2Cc1ccccc1`, the IC50 was > 50 µM (inactive).

With `CSc1ccccc1NC(=O)c1ccc(-n2cccn2)nn1`, the pIC50 was 5.35.

As to `Cc1ccc(-c2nc(NC(=O)COc3ccc(Cl)cc3)no2)cc1`, the pIC50 is 5.87.

On to `O=c1oc2ccccc2c2nn(-c3ccccn3)cc12`, for which the negative-log IC50 (pIC50) was 4.32.

For the compound `Cc1ccc2c(c1C)NC(=O)[C@]21[C@@H]2C(=O)N(c3cc(Cl)ccc3Cl)C(=O)[C@@H]2[C@@H]2CCCN21`, the IC50 was > 50 µM (inactive).

Regarding `COc1ccc(CCn2cnc3c([nH]c4ccccc43)c2=O)cc1`, the pIC50 is 5.53.

Take `COc1ccc2nc(SCC(=O)Nc3ccc(NC(C)=O)cc3)c(C)cc2c1`: the pIC50 is 5.19.

In the case of `CCC(C)Oc1cccc(C(=O)Nc2ccc(CN3CCOCC3)cc2)c1` (stereo not drawn), the IC50 is > 50 µM (inactive).

As for `CN(C)c1ccc(/C=N/NC(=O)c2ccc(Cl)cc2)cc1`, the pIC50 is 5.20.

`Cc1c(Cl)cccc1NC(=O)Cn1c(=O)c2ccccc2n2nncc12`: the IC50 was > 50 µM (inactive).

For the compound `COc1ccccc1NC(=O)Cn1cc(C(=O)c2ccc(C)cc2)c(=O)c2ccccc21`, the pIC50 is 4.64.

`O=C(Cc1cc(-c2ccccc2)on1)NCc1c(F)cccc1F`: the pIC50 is 4.55.

On to `O=C(COc1ccc(Cl)cc1Cl)Nc1ccccc1-c1nc2ccccc2[nH]1`, for which the negative logarithm of the IC50 (pIC50) is 5.67.

In the case of `COc1ccc2[nH]c3c(c2c1)CCN1C(=O)N(c2ccccc2C(=O)NCc2ccccc2)C(=O)[C@]31C`, the pIC50 is 4.46.

In the case of `O=C(Nc1ccc2c(c1)OCCO2)C1CCC(Cn2cnc3ccccc3c2=O)CC1` (stereo not drawn), the IC50 is > 50 µM (inactive).

`COc1ccc(C(=O)Nc2cc3c4c(c2)C(C)C(=O)N4CCC3)cc1` (stereo not drawn): the IC50 is > 50 µM (inactive).

Turning to `O=S1(=O)CCN(Cc2cccnc2)c2c(F)nc(N3CCOCC3)c(F)c21`, the IC50 is > 50 µM (inactive).

For the compound `Nc1ncnc(SCc2ccc(Cl)cc2)n1`, the pIC50 was 4.57.

On to `CCOc1ccc(NS(=O)(=O)c2ccc(NC(=O)Nc3ccccc3)cc2)cc1`, for which the pIC50 is 4.75.

Turning to `COc1ccccc1C(=O)N1CCc2[nH]c3ccc(F)cc3c2C1`, the IC50 was > 50 µM (inactive).

Turning to `Cc1ccc(C(=O)Nc2ccc3c(c2)C(=O)N(C)c2ccccc2O3)cc1C`, the IC50 is > 50 µM (inactive).

Consider `Cc1cccc(OCCn2c(CCNC(=O)C3CCCCC3)nc3ccccc32)c1`, for which the pIC50 is 4.54.

As for `NC(=O)c1nc(-c2cccnc2)nc2c1[nH]c(=O)n2-c1ccc2c(c1)OCO2`, the pIC50 is 5.40.

As to `CC1(C)Cc2c(sc3nc(Cc4ccccc4)nc(SCC(=O)Nc4ccccc4)c23)CO1`, the pIC50 is 5.63.

As for `COc1ccc(CN=C2NS(=O)(=O)C(c3ccc(F)cc3)=C2C)cc1OC`, the pIC50 is 4.73.

As to `Cc1nc(-c2noc(-c3ccncc3)n2)cn1CC(=O)N1CCN(c2ccc(F)cc2)CC1`, the IC50 is > 50 µM (inactive).
